Measured values published in ChEMBL document CHEMBL2062367, “Stigonemapeptin, an Ahp-containing depsipeptide with elastase inhibitory activity from the bloom-forming freshwater cyanobacterium Stigonema sp” (J Nat Prod, 2012).
Calls of active or inactive are those of the source.

Tests used:
Sus scrofa = species on record: Sus scrofa; assay: Inhibition of pig pancreatic trypsin using Nalpha-benzoyl-DL-arginine-4-nitroanilide as substrate at 10 uM incubated for 15 mins prior to substrate addition measured ever 30 secs for 30 mins by spectroscopy
HT-29 = assay: Cytotoxicity against human HT-29 cells at 25 uM; assay type: functional, cell-based
Homo sapiens = species on record: Homo sapiens; assay: Inhibition of 20S proteasome at 25 uM

C/C=C1/NC(=O)[C@@H](NC(=O)[C@H](CCC(N)=O)NC(=O)[C@@H]2CCCN2C=O)[C@@H](C)OC(=O)[C@H](C(C)C)NC(=O)[C@H](Cc2ccc(O)cc2)N(C)C(=O)[C@H](Cc2ccccc2)N2C(=O)[C@H](CC[C@H]2O)NC1=O
inactive: inhibition (Sus scrofa) | Activity (HT-29) | inhibition (Homo sapiens)
